What was measured:
Assay in all cases: Carna kinase panel screen
Type in all cases: biochemical
Settings in all cases: read-out: % Inhibition ± SD
[1] = biological target: T1, AKT2 (Homo sapiens, UniProt P31751)
T1 construct: purchased Carna Biosciences
In short: (§1)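 Ten-point dose-response, ATP ≈ Km. % inhibition vs concentration → 4-parameter logistic fit → IC50.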

[2] = biological target: T2, BMX (Homo sapiens, UniProt P51813)
T2 construct: purchased Carna Biosciences
In short: as §1

[3] = biological target: T3, BRSK1 (Homo sapiens, UniProt Q8TDC3)
T3 construct: purchased Carna Biosciences
In short: as §1

[4] = biological target: T4, CK1a (Homo sapiens, UniProt P48729)
T4 construct: purchased Carna Biosciences
In short: as §1

[5] = biological target: T5, CK1e (Homo sapiens, UniProt P49674)
T5 construct: purchased Carna Biosciences
In short: as §1

[6] = biological target: T6, CK2a1 (Homo sapiens, UniProt P68400)
T6 construct: purchased Carna Biosciences
In short: as §1

[7] = biological target: T7, DLK (Homo sapiens, UniProt Q12852)
T7 construct: purchased Carna Biosciences
In short: as §1

[8] = biological target: T8, EphA4 (Homo sapiens, UniProt P54764)
T8 construct: purchased Carna Biosciences
In short: as §1

[9] = biological target: T9, EphB3 (Homo sapiens, UniProt P54753)
T9 construct: purchased Carna Biosciences
In short: as §1

[10] = biological target: T10, FAK (Homo sapiens, UniProt Q05397)
T10 construct: purchased Carna Biosciences
In short: as §1

[11] = biological target: T11, FER (Homo sapiens, UniProt P16591)
T11 construct: purchased Carna Biosciences
In short: as §1

[12] = biological target: T12, FGFR1 (Homo sapiens, UniProt P11362)
T12 construct: purchased Carna Biosciences
In short: as §1

[13] = biological target: T13, FGFR2 (Homo sapiens, UniProt P21802)
T13 construct: purchased Carna Biosciences
In short: as §1

[14] = biological target: T14, FGFR3[K650M] (Homo sapiens, UniProt P22607, K650M)
T14 construct: purchased Carna Biosciences
In short: (§2)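 ATP was used at roughly Km levels while compounds were titrated over a 10-point curve. IC50 values came from four-parameter logistic fits of concentration versus percentage inhibition.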

[15] = biological target: T15, IKKb (Homo sapiens, UniProt O14920)
T15 construct: purchased Carna Biosciences
In short: as §1

[16] = biological target: T16, IKKe (Homo sapiens, UniProt Q14164)
T16 construct: purchased Carna Biosciences
In short: as §2

[17] = biological target: T17, IRAK1 (Homo sapiens, UniProt P51617)
T17 construct: purchased Carna Biosciences
In short: as §1

[18] = biological target: T18, JAK2 (Homo sapiens, UniProt O60674)
T18 construct: purchased Carna Biosciences
In short: as §1

[19] = biological target: T19, KDR (Homo sapiens, UniProt P35968)
T19 construct: purchased Carna Biosciences
In short: as §1

[20] = biological target: T20, LCK (Homo sapiens, UniProt P06239)
T20 construct: purchased Carna Biosciences
In short: as §1

[21] = biological target: T21, LYNb (Homo sapiens, UniProt P07948)
T21 construct: purchased Carna Biosciences
In short: as §1

[22] = biological target: T22, MAP3K2 (Homo sapiens, UniProt Q9Y2U5)
T22 construct: purchased Carna Biosciences
In short: as §1

[23] = biological target: T23, MAP3K5 (Homo sapiens, UniProt Q99683)
T23 construct: purchased Carna Biosciences
In short: as §1

[24] = biological target: T24, MGC42105 (Homo sapiens, UniProt Q8IY84)
T24 construct: purchased Carna Biosciences
In short: as §2

[25] = biological target: T25, MLK1 (Homo sapiens, UniProt P80192)
T25 construct: purchased Carna Biosciences
In short: as §1

[26] = biological target: T26, MSK2 (Homo sapiens, UniProt O75676)
T26 construct: purchased Carna Biosciences
In short: as §1

[27] = biological target: T27, NEK1 (Homo sapiens, UniProt Q96PY6)
T27 construct: purchased Carna Biosciences
In short: as §2

[28] = biological target: T28, PDK1 (Homo sapiens, UniProt O15530)
T28 construct: purchased Carna Biosciences
In short: as §1

[29] = biological target: T29, PKCa (Homo sapiens, UniProt P17252)
T29 construct: purchased Carna Biosciences
In short: as §1

[30] = biological target: T30, PKCb1 (Homo sapiens, UniProt P05771)
T30 construct: purchased Carna Biosciences
In short: as §1

[31] = biological target: T31, PKD2 (Homo sapiens, UniProt Q9BZL6)
T31 construct: purchased Carna Biosciences
In short: as §1

[32] = biological target: T32, PLK1 (Homo sapiens, UniProt P53350)
T32 construct: purchased Carna Biosciences
In short: as §1

[33] = biological target: T33, PLK3 (Homo sapiens, UniProt Q9H4B4)
T33 construct: purchased Carna Biosciences
In short: as §1

[34] = biological target: T34, PLK4 (Homo sapiens, UniProt O00444)
T34 construct: purchased Carna Biosciences
In short: as §2

[35] = biological target: T35, PRKX (Homo sapiens, UniProt P51817)
T35 construct: purchased Carna Biosciences
In short: as §1

[36] = biological target: T36, RAF1 (Homo sapiens, UniProt P04049)
T36 construct: purchased Carna Biosciences
In short: as §1

[37] = biological target: T37, RET (Homo sapiens, UniProt P07949)
T37 construct: purchased Carna Biosciences
In short: as §2

[38] = biological target: T38, SGK2 (Homo sapiens, UniProt Q9HBY8)
T38 construct: purchased Carna Biosciences
In short: as §1

[39] = biological target: T39, SLK (Homo sapiens, UniProt Q9H2G2)
T39 construct: purchased Carna Biosciences
In short: as §1

[40] = biological target: T40, SRPK1 (Homo sapiens, UniProt Q96SB4)
T40 construct: purchased Carna Biosciences
In short: as §1

[41] = biological target: T41, TRKB (Homo sapiens, UniProt Q16620)
T41 construct: purchased Carna Biosciences
In short: as §1

[42] = biological target: T42, TYRO3 (Homo sapiens, UniProt Q06418)
T42 construct: purchased Carna Biosciences
In short: as §1

[43] = biological target: T43, YES (Homo sapiens, UniProt P07947)
T43 construct: purchased Carna Biosciences
In short: as §1

[44] = biological target: T44, ZAP70 (Homo sapiens, UniProt P43403)
T44 construct: purchased Carna Biosciences
In short: as §1

T9 sequence (P54753 34-998): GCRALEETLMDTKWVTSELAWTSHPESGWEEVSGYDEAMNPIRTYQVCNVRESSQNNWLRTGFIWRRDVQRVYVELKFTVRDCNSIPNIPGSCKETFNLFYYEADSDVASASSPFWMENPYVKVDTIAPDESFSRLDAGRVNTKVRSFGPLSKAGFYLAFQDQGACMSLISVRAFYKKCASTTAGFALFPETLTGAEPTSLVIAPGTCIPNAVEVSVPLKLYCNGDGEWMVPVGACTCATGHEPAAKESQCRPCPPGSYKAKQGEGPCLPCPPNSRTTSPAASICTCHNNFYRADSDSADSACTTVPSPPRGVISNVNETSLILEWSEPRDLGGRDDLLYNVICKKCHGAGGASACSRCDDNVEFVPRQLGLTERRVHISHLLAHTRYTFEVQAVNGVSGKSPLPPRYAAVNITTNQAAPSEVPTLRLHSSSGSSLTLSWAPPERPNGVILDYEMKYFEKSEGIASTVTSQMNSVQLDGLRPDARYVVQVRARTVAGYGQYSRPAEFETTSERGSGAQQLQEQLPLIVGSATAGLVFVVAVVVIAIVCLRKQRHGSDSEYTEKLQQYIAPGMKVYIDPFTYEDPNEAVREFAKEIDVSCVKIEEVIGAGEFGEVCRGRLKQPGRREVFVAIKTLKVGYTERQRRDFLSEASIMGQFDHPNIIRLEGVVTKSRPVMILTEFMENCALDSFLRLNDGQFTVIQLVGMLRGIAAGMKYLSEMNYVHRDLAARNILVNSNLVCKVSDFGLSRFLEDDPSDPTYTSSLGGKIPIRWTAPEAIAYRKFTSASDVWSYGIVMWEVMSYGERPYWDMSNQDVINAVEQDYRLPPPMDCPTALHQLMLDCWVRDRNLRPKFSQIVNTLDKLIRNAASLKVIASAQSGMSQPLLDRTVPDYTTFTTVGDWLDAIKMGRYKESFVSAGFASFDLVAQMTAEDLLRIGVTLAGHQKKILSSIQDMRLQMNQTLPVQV
T12 sequence (P11362 22-822): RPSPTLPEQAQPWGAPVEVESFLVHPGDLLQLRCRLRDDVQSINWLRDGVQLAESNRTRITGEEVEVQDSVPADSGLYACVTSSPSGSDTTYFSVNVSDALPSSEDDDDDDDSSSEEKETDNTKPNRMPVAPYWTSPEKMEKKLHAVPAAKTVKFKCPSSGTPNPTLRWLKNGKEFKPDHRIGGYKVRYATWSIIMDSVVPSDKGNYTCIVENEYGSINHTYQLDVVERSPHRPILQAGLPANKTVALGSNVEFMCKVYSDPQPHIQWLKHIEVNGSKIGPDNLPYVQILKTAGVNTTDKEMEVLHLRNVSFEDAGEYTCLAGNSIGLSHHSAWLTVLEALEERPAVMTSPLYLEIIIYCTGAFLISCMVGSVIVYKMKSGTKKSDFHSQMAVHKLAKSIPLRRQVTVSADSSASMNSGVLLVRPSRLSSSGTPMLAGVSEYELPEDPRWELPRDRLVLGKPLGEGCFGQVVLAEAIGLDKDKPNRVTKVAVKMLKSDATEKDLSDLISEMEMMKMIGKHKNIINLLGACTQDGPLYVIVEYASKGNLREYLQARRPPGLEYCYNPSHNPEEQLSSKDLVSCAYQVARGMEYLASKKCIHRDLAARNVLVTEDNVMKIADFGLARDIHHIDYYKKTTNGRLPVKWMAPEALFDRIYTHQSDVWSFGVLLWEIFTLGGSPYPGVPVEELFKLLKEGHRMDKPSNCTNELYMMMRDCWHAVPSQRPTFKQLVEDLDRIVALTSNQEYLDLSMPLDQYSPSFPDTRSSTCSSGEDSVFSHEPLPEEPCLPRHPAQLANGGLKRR
T22 sequence (Q9Y2U5 whole entry): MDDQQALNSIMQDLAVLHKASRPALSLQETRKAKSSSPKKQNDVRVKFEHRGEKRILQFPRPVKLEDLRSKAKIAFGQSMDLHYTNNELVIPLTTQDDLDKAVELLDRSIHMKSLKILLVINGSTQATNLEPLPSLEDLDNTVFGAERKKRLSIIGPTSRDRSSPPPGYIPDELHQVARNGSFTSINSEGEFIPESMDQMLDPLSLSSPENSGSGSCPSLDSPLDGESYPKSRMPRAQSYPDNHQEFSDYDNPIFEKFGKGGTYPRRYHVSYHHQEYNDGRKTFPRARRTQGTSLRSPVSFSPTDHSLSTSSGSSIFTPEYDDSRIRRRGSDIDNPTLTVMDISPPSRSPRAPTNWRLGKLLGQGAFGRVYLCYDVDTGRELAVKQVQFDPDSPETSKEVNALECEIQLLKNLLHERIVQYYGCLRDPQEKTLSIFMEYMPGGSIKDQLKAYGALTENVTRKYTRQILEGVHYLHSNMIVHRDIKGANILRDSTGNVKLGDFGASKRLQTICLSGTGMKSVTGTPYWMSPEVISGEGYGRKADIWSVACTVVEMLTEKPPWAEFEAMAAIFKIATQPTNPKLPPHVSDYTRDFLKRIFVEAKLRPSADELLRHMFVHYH
T18 sequence (O60674 whole entry): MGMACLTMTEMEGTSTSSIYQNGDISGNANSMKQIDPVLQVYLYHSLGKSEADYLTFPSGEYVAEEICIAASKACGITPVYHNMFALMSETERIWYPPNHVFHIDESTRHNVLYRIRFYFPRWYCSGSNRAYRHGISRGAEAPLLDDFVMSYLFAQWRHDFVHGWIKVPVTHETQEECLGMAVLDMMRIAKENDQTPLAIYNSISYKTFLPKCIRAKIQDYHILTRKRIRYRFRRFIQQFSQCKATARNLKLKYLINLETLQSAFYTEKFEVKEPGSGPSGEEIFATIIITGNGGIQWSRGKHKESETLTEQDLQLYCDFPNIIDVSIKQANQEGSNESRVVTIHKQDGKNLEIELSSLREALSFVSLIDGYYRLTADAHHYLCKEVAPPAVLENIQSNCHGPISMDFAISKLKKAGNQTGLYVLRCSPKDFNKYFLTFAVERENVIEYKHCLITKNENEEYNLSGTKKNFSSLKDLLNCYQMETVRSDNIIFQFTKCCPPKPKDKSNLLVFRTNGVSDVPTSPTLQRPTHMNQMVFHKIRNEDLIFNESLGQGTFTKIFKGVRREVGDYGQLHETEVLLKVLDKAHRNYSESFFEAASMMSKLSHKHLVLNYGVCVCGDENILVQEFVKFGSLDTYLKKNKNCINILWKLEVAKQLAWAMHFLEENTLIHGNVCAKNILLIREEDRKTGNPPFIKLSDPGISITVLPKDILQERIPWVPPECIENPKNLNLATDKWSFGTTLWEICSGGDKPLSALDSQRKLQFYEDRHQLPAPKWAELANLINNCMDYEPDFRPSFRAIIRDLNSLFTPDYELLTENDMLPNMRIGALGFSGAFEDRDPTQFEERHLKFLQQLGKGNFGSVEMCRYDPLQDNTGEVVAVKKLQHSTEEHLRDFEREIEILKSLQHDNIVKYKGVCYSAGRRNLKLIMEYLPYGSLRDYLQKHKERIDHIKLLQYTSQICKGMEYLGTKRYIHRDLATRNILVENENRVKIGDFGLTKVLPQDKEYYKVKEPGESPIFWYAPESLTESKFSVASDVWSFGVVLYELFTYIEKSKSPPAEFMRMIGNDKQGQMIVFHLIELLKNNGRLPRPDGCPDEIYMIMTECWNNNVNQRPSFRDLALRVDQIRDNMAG
T13 sequence (P21802 22-821): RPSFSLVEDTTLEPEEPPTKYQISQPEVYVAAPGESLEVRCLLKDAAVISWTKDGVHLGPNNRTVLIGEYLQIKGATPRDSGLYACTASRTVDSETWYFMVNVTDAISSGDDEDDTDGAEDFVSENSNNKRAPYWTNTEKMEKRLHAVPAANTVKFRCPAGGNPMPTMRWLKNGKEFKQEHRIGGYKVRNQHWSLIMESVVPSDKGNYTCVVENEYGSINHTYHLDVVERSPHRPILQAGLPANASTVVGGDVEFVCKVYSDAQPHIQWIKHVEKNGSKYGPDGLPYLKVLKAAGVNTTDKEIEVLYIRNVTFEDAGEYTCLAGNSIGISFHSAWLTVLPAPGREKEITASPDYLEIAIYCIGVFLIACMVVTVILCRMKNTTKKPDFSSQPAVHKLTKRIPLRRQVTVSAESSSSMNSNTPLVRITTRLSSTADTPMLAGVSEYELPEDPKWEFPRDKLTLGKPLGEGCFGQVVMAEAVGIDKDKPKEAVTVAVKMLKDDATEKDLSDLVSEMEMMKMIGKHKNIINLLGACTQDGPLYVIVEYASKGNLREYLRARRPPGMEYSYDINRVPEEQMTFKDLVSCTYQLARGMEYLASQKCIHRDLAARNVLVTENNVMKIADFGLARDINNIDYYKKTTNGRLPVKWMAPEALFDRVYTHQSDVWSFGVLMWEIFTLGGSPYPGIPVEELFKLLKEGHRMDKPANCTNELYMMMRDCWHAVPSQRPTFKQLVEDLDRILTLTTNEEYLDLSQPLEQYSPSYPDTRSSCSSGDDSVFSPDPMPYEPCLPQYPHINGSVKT
T2 sequence (P51813 whole entry): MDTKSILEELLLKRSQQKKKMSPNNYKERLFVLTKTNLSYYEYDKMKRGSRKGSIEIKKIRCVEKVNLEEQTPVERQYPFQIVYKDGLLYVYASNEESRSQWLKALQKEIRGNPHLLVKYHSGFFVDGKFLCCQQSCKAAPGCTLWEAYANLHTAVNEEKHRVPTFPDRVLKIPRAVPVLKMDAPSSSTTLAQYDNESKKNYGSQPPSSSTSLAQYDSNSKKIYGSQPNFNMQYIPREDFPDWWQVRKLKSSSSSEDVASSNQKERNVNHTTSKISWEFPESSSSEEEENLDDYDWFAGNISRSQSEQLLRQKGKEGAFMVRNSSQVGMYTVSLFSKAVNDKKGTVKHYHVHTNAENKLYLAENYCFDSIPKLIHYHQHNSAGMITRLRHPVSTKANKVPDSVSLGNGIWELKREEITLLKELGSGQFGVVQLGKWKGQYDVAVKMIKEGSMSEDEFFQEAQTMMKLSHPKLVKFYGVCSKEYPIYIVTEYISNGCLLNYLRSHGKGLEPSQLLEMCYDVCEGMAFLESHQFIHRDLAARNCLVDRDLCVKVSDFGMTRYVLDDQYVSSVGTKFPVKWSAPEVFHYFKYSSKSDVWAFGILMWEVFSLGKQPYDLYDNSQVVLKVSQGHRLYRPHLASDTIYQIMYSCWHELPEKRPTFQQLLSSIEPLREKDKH

## CC[C@H](Nc1nc(NCc2cnc(C)cc2C)c2ncn(C(C)C)c2n1)[C@@H](C)O [Fadraciclib, 2-pentanol, 3-[[6-[[(4,6-dimethyl-3-pyridinyl)methyl]amino]-9-(1-methylethyl)-9Hpurin-2-yl]amino]-, (2R,3S)]
[1]
  inhibition at 1 µM: 1.5 ± 0.1%
[2]
  inhibition at 1 µM: 6.6 ± 0.3%
[3]
  inhibition at 1 µM: -11.5 ± 0.1%
[4]
  inhibition at 1 µM: 8.2 ± 0.3%
[5]
  inhibition at 1 µM: 19.8 ± 0.5%
[6]
  inhibition at 1 µM: -22.8 ± 0.7%
[7]
  inhibition at 1 µM: 0.8%
[8]
  inhibition at 1 µM: 1%
[9]
  inhibition at 1 µM: 0%
[10]
  inhibition at 1 µM: 23.4 ± 2.9%
[11]
  inhibition at 1 µM: -0.3%
[12]
  inhibition at 1 µM: 7.8%
[13]
  inhibition at 1 µM: -17.6 ± 2.2%
[14]
  inhibition at 1 µM: 3.2 ± 0.1%
[15]
  inhibition at 1 µM: 0.2%
[16]
  inhibition at 1 µM: 2.5 ± 0.1%
[17]
  inhibition at 1 µM: 1.6 ± 0.1%
[18]
  inhibition at 1 µM: 6.1 ± 0.2%
[19]
  inhibition at 1 µM: -12.8 ± 0.1%
[20]
  inhibition at 1 µM: -7.3 ± 0.1%
[21]
  inhibition at 1 µM: -8.7 ± 0.1%
[22]
  inhibition at 1 µM: -14.7 ± 0.8%
[23]
  inhibition at 1 µM: 5.2 ± 0.2%
[24]
  inhibition at 1 µM: -7.3 ± 0.1%
[25]
  inhibition at 1 µM: -11.2 ± 0.1%
[26]
  inhibition at 1 µM: -3.7%
[27]
  inhibition at 1 µM: -18.3 ± 0.1%
[28]
  inhibition at 1 µM: -5.4 ± 0.1%
[29]
  inhibition at 1 µM: 17.8 ± 0.5%
[30]
  inhibition at 1 µM: -1.9%
[31]
  inhibition at 1 µM: -13.4 ± 0.6%
[32]
  inhibition at 1 µM: 5.7 ± 0.3%
[33]
  inhibition at 1 µM: 5.7 ± 0.3%
[34]
  inhibition at 1 µM: -38.5 ± 1%
[35]
  inhibition at 1 µM: -4.2%
[36]
  inhibition at 1 µM: -1.1 ± 0.1%
[37]
  inhibition at 1 µM: 3.4 ± 0.1%
[38]
  inhibition at 1 µM: 0.9%
[39]
  inhibition at 1 µM: 2.5 ± 0.1%
[40]
  inhibition at 1 µM: 5.9 ± 0.2%
[41]
  inhibition at 1 µM: -11.4 ± 0.4%
[42]
  inhibition at 1 µM: -14.8 ± 0.2%
[43]
  inhibition at 1 µM: -7 ± 0.1%
[44]
  inhibition at 1 µM: -11.6 ± 0.3%
